Measurements from patent US12544375B2, “Small molecule therapeutic for parkinson's disease paired with a biomarker of therapeutic activity” (The Board of Trustees of the Leland Stanford Junior …, priority 2019, dated 2026).

Target: T1, DMiro (Drosophila melanogaster, UniProt Q8IMX7)
T1 construct: PD flies were fed with 2.5 μM Miro1 Reducer for the indicated time periods and lysed for blotting DMiro; from tissue; host or cells: whole flies (mutant LRRK2, PINK1 null) or heads (mutant SNCA flies)
T1 sequence (Q8IMX7 1-652): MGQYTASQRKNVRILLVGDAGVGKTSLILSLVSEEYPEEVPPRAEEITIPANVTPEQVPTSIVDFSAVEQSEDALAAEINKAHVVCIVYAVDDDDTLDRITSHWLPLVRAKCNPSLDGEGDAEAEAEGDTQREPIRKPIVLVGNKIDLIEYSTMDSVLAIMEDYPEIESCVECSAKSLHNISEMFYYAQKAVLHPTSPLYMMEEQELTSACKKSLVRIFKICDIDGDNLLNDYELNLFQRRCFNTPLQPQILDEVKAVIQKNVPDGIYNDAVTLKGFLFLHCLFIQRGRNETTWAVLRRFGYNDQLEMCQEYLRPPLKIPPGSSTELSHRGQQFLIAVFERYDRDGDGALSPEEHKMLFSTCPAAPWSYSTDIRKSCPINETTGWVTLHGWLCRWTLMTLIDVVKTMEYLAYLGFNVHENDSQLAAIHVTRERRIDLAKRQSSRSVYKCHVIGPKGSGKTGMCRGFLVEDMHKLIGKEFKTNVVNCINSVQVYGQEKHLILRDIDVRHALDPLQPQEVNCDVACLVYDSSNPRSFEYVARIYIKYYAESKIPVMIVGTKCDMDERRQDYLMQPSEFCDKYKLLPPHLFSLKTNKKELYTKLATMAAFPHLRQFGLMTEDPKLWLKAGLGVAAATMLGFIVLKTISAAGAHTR
Assay: DMiro level in PD flies fed compound, Western blot
Assay type: in vivo, fly
Settings: 2.5 μM, mutant LRRK2, PINK1 and SNCA flies
Protocol: FIG. 8. Related to FIG. 2-4. Miro1 Reducer in Human Cell and Fly Models. (A) Fibroblasts from Healthy-1 and PD-2 were treated, lysed, and blotted as indicated. Band intensities are normalized to those of GAPDH from the same blots and compared to “Healthy-1, no treatment”. n=4 independent experiments. (B) Fibroblasts from PD-2 were treated and immunostained as indicated. The intensity was quantified for each cell across 264-320 cells from 3 independent experiments, compared to “no treatment”. (C) Fibroblasts were treated, immunoprecipitated (IPed) with anti-Miro1, and blotted as indicated. Similar results were observed twice. (D) Similar as in (C), fibroblasts were treated as indicated, and IPed with anti-Miro1. The GTPase activity of the IPed Miro1 protein was measured as described in Method. […] The MitoSox intensity was quantified for each cell across 106-161 cells from 3 coverslips. […] The TMRM intensity was measured for each cell across 48-60 cells from 3 independent experiments, and expressed as a fraction of the mean of “Healthy-1, no treatment”. […] The movement (the intensity of non-yellow) was quantified for each cell as described in (Tsai et al., 2014) across 22-31 cells from 3 transfections. […] (1) Left: The percentage of TH-positive iPSC-derived neurons out of total cells (Dapi-positive) is calculated after immunocytochemistry under 20× as described in FIG. 3. […]

O=C(Nc1ccc(Nc2cc(-n3ccnc3)ncn2)cc1)Nc1cccc(F)c1 [Miro1 Reducer]
DMiro band intensity in PD flies: trend of DMiro reduction
